Target: human KDR protein in HEK-293 cells (Homo sapiens (Human), UniProt P35968)
Experiment: KDR Cell Assay (phospho-KDR in HEK-293 cells expressing inducible KDR)
Assay type: cell-based
Conditions: pKDR Cell HEK 10% FBS IC50, HEK-293 cells expressing inducible KDR, VEGF stimulated
Procedure, shortened: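 HEK-293 cells with inducible human KDR were treated with compound for 1 h in DMEM (0.25% DMSO final), then lysed. Phospho-KDR was quantified by Meso Scale immunoassay, expressed as percent of control, and IC50 taken where a 4-parameter logistic fit crossed 50 POC.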

human KDR protein in HEK-293 cells, sequence (P35968 20-1356): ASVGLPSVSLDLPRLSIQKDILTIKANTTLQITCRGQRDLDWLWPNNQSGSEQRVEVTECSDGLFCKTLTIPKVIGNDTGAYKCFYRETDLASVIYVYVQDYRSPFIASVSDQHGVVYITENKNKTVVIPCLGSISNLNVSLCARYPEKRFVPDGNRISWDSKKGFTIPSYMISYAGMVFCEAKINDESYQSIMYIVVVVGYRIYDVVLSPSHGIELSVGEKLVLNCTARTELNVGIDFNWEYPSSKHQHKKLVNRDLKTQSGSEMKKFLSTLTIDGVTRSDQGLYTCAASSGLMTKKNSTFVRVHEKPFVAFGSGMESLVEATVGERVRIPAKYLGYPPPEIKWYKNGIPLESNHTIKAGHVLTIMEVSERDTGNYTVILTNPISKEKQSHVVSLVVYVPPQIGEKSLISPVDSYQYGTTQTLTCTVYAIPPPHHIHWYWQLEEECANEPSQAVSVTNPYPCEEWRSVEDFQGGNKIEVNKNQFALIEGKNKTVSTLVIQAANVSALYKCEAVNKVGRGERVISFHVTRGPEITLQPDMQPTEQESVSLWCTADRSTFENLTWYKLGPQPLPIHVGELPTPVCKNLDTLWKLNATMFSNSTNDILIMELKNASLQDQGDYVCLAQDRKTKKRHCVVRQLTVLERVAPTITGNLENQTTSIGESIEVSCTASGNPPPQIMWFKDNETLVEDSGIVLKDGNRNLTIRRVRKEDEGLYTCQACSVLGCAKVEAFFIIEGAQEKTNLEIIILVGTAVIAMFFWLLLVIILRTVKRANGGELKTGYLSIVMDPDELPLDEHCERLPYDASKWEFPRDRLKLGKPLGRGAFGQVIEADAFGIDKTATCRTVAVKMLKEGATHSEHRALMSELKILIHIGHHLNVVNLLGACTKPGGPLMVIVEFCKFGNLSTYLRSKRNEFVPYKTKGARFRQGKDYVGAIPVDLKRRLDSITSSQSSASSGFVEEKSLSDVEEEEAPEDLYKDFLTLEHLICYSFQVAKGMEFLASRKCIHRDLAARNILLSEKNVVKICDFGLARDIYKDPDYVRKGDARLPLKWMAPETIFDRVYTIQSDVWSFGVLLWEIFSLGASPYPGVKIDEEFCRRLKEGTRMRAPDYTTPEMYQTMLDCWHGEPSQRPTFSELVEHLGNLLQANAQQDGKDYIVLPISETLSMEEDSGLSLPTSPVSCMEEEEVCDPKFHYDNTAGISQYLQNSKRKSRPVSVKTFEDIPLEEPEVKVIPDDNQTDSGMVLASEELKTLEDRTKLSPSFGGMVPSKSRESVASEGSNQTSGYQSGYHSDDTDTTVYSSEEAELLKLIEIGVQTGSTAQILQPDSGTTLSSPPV

Row | SMILES | IC50 [nM]
1 | Cn1cc(-c2cc(-c3ccc(N4CCC5(CCN(C(=O)OC(C)(C)C)C5)C4)nc3)c3c(C#N)cnn3c2)cn1 (centres unmarked) [Example 519, tert-butyl 7-(5-(3-cyano-6-(1-methyl-1H-pyrazol-4-yl)pyrazolo[1,5-a]pyridin-4-yl)pyridin-2-yl)-2,7-diazaspiro[4.4]nonane-2-carboxylate] | 1250
2 | Cn1cc(-c2cc(-c3ccc(N4CCC5(CN(C(=O)OC(C)(C)C)C5)C4)nc3)c3c(C#N)cnn3c2)cn1 [Example 521, tert-butyl 6-(5-(3-cyano-6-(1-methyl-1H-pyrazol-4-yl)pyrazolo[1,5-a]pyridin-4-yl)pyridin-2-yl)-2,6-diazaspiro[3.4]octane-2-carboxylate] | 675
3 | Cn1cc(-c2cc(-c3ccc(N4CC5(CCCN5C(=O)OCc5ccccc5)C4)nc3)c3c(C#N)cnn3c2)cn1 [Example 525, benzyl 2-(5-(3-cyano-6-(1-methyl-1H-pyrazol-4-yl)pyrazolo[1,5-a]pyridin-4-yl)pyridin-2-yl)-2,5-diazaspiro[3.4]octane-5-carboxylate 2,2,2-trifluoroacetate] | 1580
4 | Cn1cc(-c2cc(-c3ccc(N4CC5(CN(C(=O)OC(C)(C)C)C5)C4)nc3)c3c(C#N)cnn3c2)cn1 [Example 526, tert-butyl 6-(5-(3-cyano-6-(1-methyl-1H-pyrazol-4-yl)pyrazolo[1,5-a]pyridin-4-yl)pyridin-2-yl)-2,6-diazaspiro[3.3]heptane-2-carboxylate] | ≥ 5000
5 | Cn1cc(-c2cc(-c3ccc(N4CC5(CCOCC5)C4)nc3)c3c(C#N)cnn3c2)cn1 [Example 527, 4-(6-(7-oxa-2-azaspiro[3.5]nonan-2-yl)pyridin-3-yl)-6-(1-methyl-1H-pyrazol-4-yl)pyrazolo[1,5-a]pyridine-3-carbonitrile 2,2,2-trifluoroacetate] | 918
6 | Cn1cc(-c2cc(-c3ccc(N4CC5(CCOC5)C4)nc3)c3c(C#N)cnn3c2)cn1 [Example 528, 4-(6-(6-oxa-2-azaspiro[3.4]octan-2-yl)pyridin-3-yl)-6-(1-methyl-1H-pyrazol-4-yl)pyrazolo[1,5-a]pyridine-3-carbonitrile 2,2,2-trifluoroacetate] | 1670
7 | Cn1cc(-c2cc(-c3ccc(N4CCC5(CCCOC5)C4)nc3)c3c(C#N)cnn3c2)cn1 (centres unmarked) [Example 529, 4-(6-(7-oxa-2-azaspiro[4.5]decan-2-yl)pyridin-3-yl)-6-(1-methyl-1H-pyrazol-4-yl)pyrazolo[1,5-a]pyridine-3-carbonitrile] | ≥ 5000
8 | Cn1cc(-c2cc(-c3ccc(N4CCC5(CCOC5)C4)nc3)c3c(C#N)cnn3c2)cn1 (centres unmarked) [Example 530, 4-(6-(2-oxa-7-azaspiro[4.4]nonan-7-yl)pyridin-3-yl)-6-(1-methyl-1H-pyrazol-4-yl)pyrazolo[1,5-a]pyridine-3-carbonitrile 2,2,2-trifluoroacetate] | 1540
9 | Cn1cc(-c2cc(-c3ccc(N4CCC(O)(C(F)(F)F)C4)nc3)c3c(C#N)cnn3c2)cn1 (centres unmarked) [Example 531, 4-(6-(3-hydroxy-3-(trifluoromethyl)pyrrolidin-1-yl)pyridin-3-yl)-6-(1-methyl-1H-pyrazol-4-yl)pyrazolo[1,5-a]pyridine-3-carbonitrile 2,2,2-trifluoroacetate] | 690
10 | Cn1cc(-c2cc(-c3ccc(N4CCC(c5ccccc5)C4)nc3)c3c(C#N)cnn3c2)cn1 (centres unmarked) [Example 533, 6-(1-methyl-1H-pyrazol-4-yl)-4-(6-(3-phenylpyrrolidin-1-yl)pyridin-3-yl)pyrazolo[1,5-a]pyridine-3-carbonitrile 2,2,2-trifluoroacetate] | 4860
11 | Cn1cc(-c2cc(-c3ccc(N4CCC(c5ccc(Cl)cc5)CC4)nc3)c3c(C#N)cnn3c2)cn1 [Example 534, 4-(6-(4-(4-chlorophenyl)piperidin-1-yl)pyridin-3-yl)-6-(1-methyl-1H-pyrazol-4-yl)pyrazolo[1,5-a]pyridine-3-carbonitrile 2,2,2-trifluoroacetate] | 12.5
